Values of other authors in patent US12296348B2, “Electrostatic precipitator” (TECHNISCHE UNIVERSITÄT DORTMUND, priority 2019, dated 2025).

Conditions: solubility limited in terms of its bioavailability

- BCS classification: Class II
Compound: COc1ccc2cc([C@H](C)C(=O)O)ccc2c1 [unprocessed naproxen, naproxen]
